#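 Cells were grown in 96-well plates and exposed to each compound for 48 hours at five concentrations; endpoints were interpolated linearly between bracketing concentrations, or set to the highest concentration if not reached. TGI denotes the concentration required for complete inhibition of growth.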
# Columns and labels:
# Test in all cases: NCI-60 cell line screen, 48 h
# [1] = test system: 786-0 renal
# [2] = test system: A549 NSCLC
# [3] = test system: ACHN renal
# [4] = test system: CCRF-CEM leukemia
# [5] = test system: COLO 205 colon
# [6] = test system: DLD-1 colon
# [7] = test system: DMS 273 small cell lung
# [8] = test system: EKVX NSCLC
# [9] = test system: HCC-2998 colon
# [10] = test system: HCT-116 colon
# [11] = test system: HCT-15 colon
# [12] = test system: HL-60(TB) leukemia
# [13] = test system: HOP-62 NSCLC
# [14] = test system: HT29 colon
# [15] = test system: IGROV1 ovarian
# [16] = test system: K-562 leukemia
# [17] = test system: KM12 colon
# [18] = test system: KM20L2 colon
# [19] = test system: LOX IMVI melanoma
# [20] = test system: LXFL 529 NSCLC
# [21] = test system: M14 melanoma
# [22] = test system: M19-MEL melanoma
# [23] = test system: MALME-3M melanoma
# [24] = test system: MOLT-4 leukemia
# [25] = test system: NCI-H226 lung
# [26] = test system: NCI-H23 lung
# [27] = test system: NCI-H460 lung
# [28] = test system: NCI-H522 lung
# [29] = test system: OVCAR-3 ovarian
# [30] = test system: OVCAR-4 ovarian
# [31] = test system: OVCAR-8 ovarian
# [32] = test system: RXF 393 renal
# [33] = test system: SF-268 CNS
# [34] = test system: SF-295 CNS
# [35] = test system: SF-539 CNS
# [36] = test system: SK-MEL-2 melanoma
# [37] = test system: SK-MEL-28 melanoma
# [38] = test system: SK-MEL-5 melanoma
# [39] = test system: SK-OV-3 ovarian
# [40] = test system: SN12C renal
# [41] = test system: SNB-19 CNS
# [42] = test system: SNB-75 CNS
# [43] = test system: SNB-78 CNS
# [44] = test system: SR leukemia
# [45] = test system: SW-620 colon
# [46] = test system: TK-10 renal
# [47] = test system: U251 CNS
# [48] = test system: UACC-257 melanoma
# [49] = test system: UACC-62 melanoma
# [50] = test system: UO-31 renal
# [51] = test system: XF 498 CNS
# [52] = test system: A498 renal
# [53] = test system: HOP-18 NSCLC
# [54] = test system: HOP-92 NSCLC
# [55] = test system: OVCAR-5 ovarian
# [56] = test system: RPMI-8226 leukemia
compound,measurement,setting,value
CCC(C)CNC1=C(NC(C)=O)C(=O)c2ccccc2C1=O (stereo not drawn),TGI,[1],> 100 µM
same,TGI,[2],> 100 µM
same,TGI,[3],> 100 µM
same,TGI,[4],> 100 µM
same,TGI,[5],> 100 µM
same,TGI,[6],> 100 µM
same,TGI,[7],> 100 µM
same,TGI,[8],> 100 µM
same,TGI,[9],> 100 µM
same,TGI,[10],> 100 µM
same,TGI,[11],> 100 µM
same,TGI,[12],> 100 µM
same,TGI,[13],> 100 µM
same,TGI,[14],> 100 µM
same,TGI,[15],> 100 µM
same,TGI,[16],> 100 µM
same,TGI,[17],> 100 µM
same,TGI,[18],> 100 µM
same,TGI,[19],> 100 µM
same,TGI,[20],> 100 µM
same,TGI,[21],> 100 µM
same,TGI,[22],42.6 µM
same,TGI,[23],> 100 µM
same,TGI,[24],> 100 µM
same,TGI,[25],> 100 µM
same,TGI,[26],> 100 µM
same,TGI,[27],> 100 µM
same,TGI,[28],> 100 µM
same,TGI,[29],> 100 µM
same,TGI,[30],> 100 µM
same,TGI,[31],> 100 µM
same,TGI,[32],> 100 µM
same,TGI,[33],> 100 µM
same,TGI,[34],> 100 µM
same,TGI,[35],> 100 µM
same,TGI,[36],> 100 µM
same,TGI,[37],> 100 µM
same,TGI,[38],> 100 µM
same,TGI,[39],> 100 µM
same,TGI,[40],> 100 µM
same,TGI,[41],> 100 µM
same,TGI,[42],> 100 µM
same,TGI,[43],> 100 µM
same,TGI,[44],> 100 µM
same,TGI,[45],> 100 µM
same,TGI,[46],> 100 µM
same,TGI,[47],> 100 µM
same,TGI,[48],> 100 µM
same,TGI,[49],> 100 µM
same,TGI,[50],> 100 µM
same,TGI,[51],> 100 µM
CCOC(=O)C(=C=Cc1cccs1)C(=O)c1ccccc1,TGI,[1],29.5 µM
same,TGI,[52],35.5 µM
same,TGI,[2],45.5 µM
same,TGI,[3],33.3 µM
same,TGI,[4],> 100 µM
same,TGI,[5],31.4 µM
same,TGI,[6],27.8 µM
same,TGI,[7],31.3 µM
same,TGI,[8],31 µM
same,TGI,[9],31.2 µM
same,TGI,[10],27.7 µM
same,TGI,[11],30.1 µM
same,TGI,[12],80.9 µM
same,TGI,[53],34 µM
same,TGI,[13],33.9 µM
same,TGI,[54],19.1 µM
same,TGI,[14],34.5 µM
same,TGI,[15],34.6 µM
same,TGI,[16],> 100 µM
same,TGI,[17],24.7 µM
same,TGI,[19],24.9 µM
same,TGI,[20],28.4 µM
same,TGI,[21],28.2 µM
same,TGI,[22],32.1 µM
same,TGI,[23],29.3 µM
same,TGI,[24],48.5 µM
same,TGI,[25],32.7 µM
same,TGI,[26],28.8 µM
same,TGI,[27],46 µM
same,TGI,[28],28.3 µM
same,TGI,[30],39.4 µM
same,TGI,[55],28.5 µM
same,TGI,[31],29.3 µM
same,TGI,[56],44.5 µM
same,TGI,[33],33.2 µM
same,TGI,[34],31.9 µM
same,TGI,[35],30.6 µM
same,TGI,[36],33.4 µM
same,TGI,[37],28 µM
same,TGI,[38],10.5 µM
same,TGI,[39],62.8 µM
same,TGI,[40],29.3 µM
same,TGI,[42],29.8 µM
same,TGI,[43],47.5 µM
same,TGI,[44],49 µM
same,TGI,[45],31.9 µM
same,TGI,[46],28.5 µM
same,TGI,[47],31.3 µM
same,TGI,[48],25.5 µM
same,TGI,[49],30.3 µM
same,TGI,[50],27.3 µM
same,TGI,[51],32.6 µM

# Source: PubChem BioAssay (NCI)
